Assay: molar heat capacity at constant pressure
Conditions: 101.33 kPa, Crystal, Vacuum adiabatic calorimetry

CC(C)(C)Cc1ccccc1 [(2,2-dimethylpropyl)benzene]
Conditions | molar heat capacity at constant pressure [J/K/mol]
5 K | 0.3584
6.43 K | 0.79
6.83 K | 0.95
7.1 K | 1.05
7.5 K | 1.2
7.91 K | 1.41
8.27 K | 1.62
8.57 K | 1.81
8.9 K | 2.04
9.24 K | 2.3
9.58 K | 2.54
9.91 K | 2.77
10 K | 2.835
10.24 K | 3
10.55 K | 3.28
10.86 K | 3.54
11.15 K | 3.76
11.45 K | 4.08
11.74 K | 4.36
12.04 K | 4.69
12.51 K | 5.2
13.17 K | 6
13.78 K | 6.68
14.4 K | 7.42
14.99 K | 8.11
15 K | 8.156
15.59 K | 8.88
16.17 K | 9.65
16.76 K | 10.42
17.35 K | 11.18
18.02 K | 12.15
18.82 K | 13.47
19.44 K | 14.45
20 K | 15.37
20.07 K | 15.49
20.87 K | 16.75
21.6 K | 17.96
22.31 K | 19.18
22.92 K | 20.15
23.68 K | 21.34
24.39 K | 22.44
25 K | 23.31
25.18 K | 23.58
25.93 K | 24.66
26.71 K | 25.76
27.52 K | 26.89
28.33 K | 28.13
29.16 K | 29.24
30 K | 30.36
30.01 K | 30.42
30.87 K | 31.42
31.75 K | 32.74
32.64 K | 33.75
33.41 K | 34.7
34.46 K | 36.13
35 K | 36.76
35.4 K | 37.3
36.35 K | 38.43
37.32 K | 39.67
38.31 K | 40.94
39.3 K | 41.89
40 K | 42.83
40.33 K | 43.02
41.36 K | 44.25
42.4 K | 45.57
43.47 K | 46.7
44.54 K | 47.93
45 K | 48.21
45.63 K | 48.9
46.73 K | 49.79
47.83 K | 50.85
48.96 K | 51.7
50 K | 52.68
50.08 K | 52.7
51.22 K | 53.77
52.37 K | 54.62
53.54 K | 55.66
54.59 K | 56.42
56 K | 57.64
57.09 K | 58.58
58.29 K | 59.72
59.5 K | 60.71
60 K | 61.21
60.59 K | 61.7
61.93 K | 63.06
63.16 K | 64.15
64.57 K | 65.26
65.64 K | 66.12
66.89 K | 67.2
68.15 K | 68
69.4 K | 69.06
70 K | 69.54
70.99 K | 70.19
72.9 K | 71.7
74.83 K | 72.92
76.87 K | 74.43
78.7 K | 75.75
79.98 K | 76.76
80 K | 76.67
80.65 K | 77.08
81.93 K | 78.1
82.61 K | 78.8
83.87 K | 79.5
84.58 K | 80.15
85.81 K | 80.93
86.55 K | 81.42
87.75 K | 82.4
88.51 K | 82.92
89.69 K | 83.89
90 K | 84.14
90.49 K | 84.64
91.64 K | 85.39
92.48 K | 86.14
93.59 K | 86.97
95.54 K | 88.3
97.5 K | 89.8
99.45 K | 91.29
100 K | 91.54
101.41 K | 92.54
103.37 K | 94.12
105.32 K | 95.53
107.28 K | 97.03
109.23 K | 98.11
110 K | 98.78
111.18 K | 99.61
113.14 K | 100.85
115.09 K | 102.6
117.46 K | 104.26
119.37 K | 105.34
120 K | 105.9
121.31 K | 106.92
123.26 K | 108
125.2 K | 109.67
127.13 K | 110.75
129.07 K | 111.99
130 K | 112.8
131 K | 113.49
132.93 K | 115.07
134.85 K | 116.15
136.78 K | 117.4
138.7 K | 118.65
140 K | 119.7
140.61 K | 120.14
142.53 K | 121.39
144.43 K | 122.97
